Source: patent publication US8586588B2, “Aryl pyridazinone derivatives and their use as H3 receptor ligands” (Cephalon, Inc., priority 2006, dated 2013)
Counter-ions that a name gives are not always drawn.

SMILES | melting point
CC1CC(c2ccc(OCCCN3CCC[C@H]3C)cc2)=NNC1=O (stereo partly drawn) (as salt: HCl) [Example 121, 4-Methyl-6-{4-[3-((R)-2-methyl-pyrrolidin-1-yl)-propoxy]-phenyl}-4,5-dihydro-2H-pyridazin-3-one] | 201 to 203 °C
Cc1cc(-c2ccc(OCCCN3CCC[C@H]3C)cc2)n[nH]c1=O (as salt: HCl) [Example 122, 4-Methyl-6-{4-[3-((R)-2-methyl-pyrrolidin-1-yl)-propoxy]-phenyl}-2H-pyridazin-3-one] | 207 to 208 °C
Cc1cc(-c2ccc(OCCCN3CCCCC3)cc2)n[nH]c1=O (as salt: HCl) [Example 123, 4-Methyl-6-[4-(3-piperidin-1-yl-propoxy)-phenyl]-2H-pyridazin-3-one] | 227 to 229 °C
Cn1nc(-c2ccc(OCCCN3CCC[C@H]3CO)cc2)c2c(c1=O)CCCC2 (as salt: HCl) [Example 124, 4-{4-[3-((S)-2-Hydroxymethyl-pyrrolidin-1-yl)-propoxy]-phenyl}-2-methyl-5,6,7,8-tetrahydro-2H-phthalazin-1-one] | 120 to 122 °C
C[C@@H]1CCCN1CCCOc1cccc(-c2nn(C)c(=O)c3c2CCC3)c1 (as salt: HCl) [Example 125, 2-Methyl-4-{3-[3-((R)-2-methyl-pyrrolidin-1-yl)-propoxy]-phenyl}-2,5,6,7-tetrahydro-cyclopenta[d]pyridazin-1-one] | 172 to 174 °C
Cn1nc(-c2cccc(OCCCN3CCCCC3)c2)c2c(c1=O)CCC2 (as salt: HCl) [Example 126, 2-Methyl-4-[3-(3-piperidin-1-yl-propoxy)-phenyl]-2,5,6,7-tetrahydro-cyclopenta[d]pyridazin-1-one] | 189 to 190 °C
Cn1nc(-c2cccc(OCCCN3CCC[C@H]3CO)c2)c2c(c1=O)CCC2 (as salt: HCl) [Example 127, 4-{3-[3-((S)-2-Hydroxymethyl-pyrrolidin-1-yl)-propoxy]-phenyl}-2-methyl-2,5,6,7-tetrahydro-cyclopenta[d]pyridazin-1-one] | 193 to 194 °C
CC(C)n1ncc(-c2ccc(OCCCN3CCC[C@H]3C)cc2)cc1=O (as salt: HCl) [Example 128, 2-Isopropyl-5-{4-[3-((R)-2-methyl-pyrrolidin-1-yl)-propoxy]-phenyl}-2H-pyridazin-3-one] | 251 to 253 °C
O=c1ccc(-c2ccc(OC3CCN(C4CCC4)CC3)nc2)nn1-c1ccccn1 (as salt: HCl) [Example 149, 6-[6-(1-Cyclobutyl-piperidin-4-yloxy)-pyridin-3-yl]-2-pyridin-2-yl-2H-pyridazin-3-one] | 261 to 262 °C
O=C1CCC(c2ccc(OC3CCN(C4CCC4)CC3)cc2)=NN1c1ccccn1 (as salt: HCl) [Example 158, 6-[4-(1-Cyclobutyl-piperidin-4-yloxy)phenyl]-2-pyridin-2-yl-4,5-dihydro-2H-pyridazin-3-one] | 263 to 265 °C
O=C1NN=C(c2ccc(OC3CCN(C4CCC4)CC3)cc2)C2CCC12 (stereo not shown) (as salt: HCl) [Example 172, 5-[4-(1-Cyclobutyl-piperidin-4-yloxy)-phenyl]-3,4-diaza-bicyclo[4.2.0]oct-4-en-2-one] | 285 to 288 °C
C[C@@H]1CCCN1CCCOc1ccc(C2=NN(c3ccccn3)C(=O)CC2)cc1 (as salt: HCl) [Example 183, 6-{4-[3-((R)-2-Methyl-pyrrolidin-1-yl)-propoxy]-phenyl}-2-pyridin-2-yl-4,5-dihydro-2H-pyridazin-3-one] | 203 to 205 °C
CC1CC(=O)N(c2ccccn2)N=C1c1ccc(OC2CCN(C3CCC3)CC2)cc1 (stereo not shown) (as salt: HCl) [Example 193, 6-[4-(1-Cyclobutyl-piperidin-4-yloxy)-phenyl]-5-methyl-2-pyridin-2-yl-4,5-dihydro-2H-pyridazin-3-one] | 143 to 145 °C
Cc1cc(OCCCN2CCC[C@H]2C)ccc1C1=NNC(=O)CC1 (as salt: HCl) [Example 199, 6-{(R)-2-Methyl-4-[3-(2-methyl-pyrrolidin-1-yl)-propoxy]-phenyl}-4,5-dihydro-2H-pyridazin-3-one] | 121 to 123 °C
C[C@@H]1CCCN1CCCOc1ccc2c(c1)CCc1cc(=O)[nH]nc1-2 (as salt: HCl) [Example 209, 8-[3-((R)-2-Methyl-pyrrolidin-1-yl)-propoxy]-5,6-dihydro-2H-benzo[h]cinnolin-3-one] | 289 to 292 °C
C[C@@H]1CCCN1CCCOc1ccc2c(c1)CCC1CC(=O)NN=C21 (stereo partly shown) (as salt: HCl) [Example 212, 8-[3-(2-Methyl-pyrrolidin-1-yl)-propoxy]-4,4a,5,6-tetrahydro-2H-benzo[h]cinnolin-3-one] | 193 to 195 °C
O=C1CCC(c2ccc(OC3CCN(C4CCC4)CC3)cc2F)=NN1 (as salt: HCl) [Example 219, 6-[4-(1-Cyclobutyl-piperidin-4-yloxy)-2-fluoro-phenyl]-4,5-dihydro-2H-pyridazin-3-one] | > 300 °C
COCn1ncc(-c2ccc(OCCCN3CCC[C@H]3C)cc2C)cc1=O (as salt: HCl) [Example 230, 2-Methoxymethyl-5-{2-methyl-4-[3-((R)-2-methyl-pyrrolidin-1-yl)-propoxyl]-phenyl}-2H-pyridazin-3-one] | 139 to 140.5 °C
Cc1cc(OCCCN2CCC[C@H]2C)ccc1-c1cn[nH]c(=O)c1 (as salt: HCl) [Example 231, 5-{2-methyl-4-[3-((R)-2-methyl-pyrrolidin-1-yl)-propoxyl]-phenyl}-2H-pyridazin-3-one] | 186 to 188 °C
COCn1ncc(-c2ccc(OCCCN3CCCCC3)cc2C)cc1=O (as salt: HCl) [Example 232, 2-Methoxymethyl-5-[2-methyl-4-(3-piperidin-1-yl-propoxy)-phenyl]-2H-pyridazin-3-one] | 185 to 197 °C (dec.)
COCn1ncc(-c2ccc(OC3CCN(C4CCC4)CC3)cc2C)cc1=O (as salt: HCl) [Example 234, 5-[4-(1-Cyclobutyl-piperidin-4-yloxy)-2-methyl-phenyl]-2-methoxymethyl-2H-pyridazin-3-one] | 119.5 to 123.5 °C
CCN1N=C(c2ccc(OC3CCN(C4CCC4)CC3)cc2)C2CC2C1=O (stereo not shown) (as salt: HCl) [Example 250, 5-[4-(1-Cyclobutyl-piperidin-4-yloxy)-phenyl]-3-ethyl-3,4-diaza-bicyclo[4.1.0]hept-4-en-2-one] | 246 to 248 °C
CN1N=C(c2ccc(OC3CCN(C4CCC4)CC3)cc2)C2CC2C1=O (stereo not shown) (as salt: HCl) [Example 252, 5-[4-(1-Cyclobutyl-piperidin-4-yloxy)-phenyl]-3-methyl-3,4-diaza-bicyclo[4.1.0]hept-4-en-2-one] | 243 to 245 °C
O=C1C2CC2C(c2ccc(OC3CCN(C4CCC4)CC3)cc2)=NN1c1ccc(F)cc1 (stereo not shown) (as salt: HCl) [Example 253, 5-[4-(1-Cyclobutyl-piperidin-4-yloxy)-phenyl]-3-(4-fluoro-phenyl)-3,4-diaza-bicyclo[4.1.0]hept-4-en-2-one] | 147 to 149 °C
O=C1C2CC2C(c2ccc(OC3CCN(C4CCC4)CC3)cc2)=NN1CC(F)(F)F (stereo not shown) (as salt: HCl) [Example 254, 5-[4-(1-Cyclobutyl-piperidin-4-yloxy)-phenyl]-3-(2,2,2-trifluoro-ethyl)-3,4-diaza-bicyclo[4.1.0]hept-4-en-2-one] | 110 to 121 °C
